Data on one molecule can be found in US20160159954A1, “POLYDENDRONS” (The Univeristy of Liverpool, priority 2013, published 2016).

SMILES strings stand for the structures.

The test system of data set [1] is Caco-2 cells. Description: MTT assay cytotoxicity. Type of data set: cell-based. As for the experimental part:
(§1) Caco-2 cells were purchased from American Type Culture Collection (ATCC, USA) and maintained in Dulbecco's Modified Eagles Medium (DMEM) supplemented with 15% filtered sterile foetal bovine serum. Cells were incubated at 37° C. and 5% CO2 and were routinely sub-cultured every 4 days when 90% confluent. Cell count and viability was determined using a Countess automated cell counter (Invitrogen).
(§2) Caco-2 cells were seeded at a density of 1.0×10^4 cells/100 μl in DMEM supplemented with 15% FBS into each well of a 96 well plate (Nunclon, Denmark) and incubated at 37° C. and 5% CO2. Cells from 4 separate flasks of biological replicates of each cell type were used (N1-4) to improve statistical power. Media was then aspirated from column 1 and replaced with media containing each polydendron or aqueous Nile Red solution at an equivalent 1 μM Nile Red concentration then diluted 1:1 in media across the plate up to column 11. Column 12 served as a negative control and consisted of media and untreated cells. Following polydendron addition, the plates were incubated for 24 hours or 120 hours at 37° C., 5% CO2 prior to assessment of cytotoxicity.
Following incubation of treated plates for 24 h or 120 h, 20 μl of 5 mg ml^−1 MTT reagent was added to each well and incubated for 2 hours. Subsequently, 100 μL MTT lysis buffer (50% N—N-Dimethylformamide in water containing 20% SDS, 2.5% glacial acetic acid and 2.5% hydrochloric acid, pH 4.7) was added to each well to lyse overnight at 37° C., 5% CO2. Following incubation the absorbance of each well was read using a Tecan Genosis plate reader at 560 nm (Tecan Magellan, Austria).
On the technique in general: Tetrazolium dyes change colour on reduction, which living cells bring about.

A further data set concerns Caco-2 cell monolayers. Description: Transcellular permeability of Nile Red across Caco-2 monolayers. To be noted: 1 hour incubation. Type of data set: in vitro ADME. As for the experimental part:
Transwells were seeded with 3.5×10^4 cells per well and propagated to a monolayer over a 21 day period, during which media in the apical and basolateral wells was changed every other day. Trans-epithelial electrical resistance (TEER) values were monitored until they were >1300Ω. 1 μM of Nile Red polydendron or 1 μM aqueous Nile Red was added to the apical chamber of 4 wells and the basolateral chamber of 4 wells to quantify transport in both Apical to Basolateral (A>B) and Basolateral to Apical (B>A) direction and sampled on an hourly basis over a 4 h time period. Apparent permeability coefficient was then determined by the amount of compound transported over time using the equation: […]
where (dQ/dt) is the amount per time (nmol·sec^−1), A is the surface area of the filter and C0 is the starting concentration of the donor chamber (1 μM).
100 μl of each collected sample was mixed with 900 μl acetone, vortexed, sonicated for 6 minutes and centrifuged at 13300 rpm for 3 minutes. The supernatant was completely dried in a vacuum centrifuge at 30° C. until the dry solid sample was left. This was reconstituted in 150 μl acetonitrile, transferred to a 96-well black walled, flat bottomed plate and measured for fluorescence intensity excitation wavelength 480 nm, emission wavelength 560 nm using a Tecan Genios plate reader (Tecan Magellan, Austria).
Background: Caco-2 cells form a polarised layer with tight junctions and transporters.

The subject of data set [2] is Caco-2 cells. As to the kind of experiment: ATP assay (CellTiter-Glo) cytotoxicity. The data set is classed as cell-based. As for the experimental part: as §1, §2
Following incubation of treated plates for 24 h or 120 h, cells were equilibrated to room temperature for approximately 30 minutes. All but 20 μl of media was removed from each well and 20 μl CellTiter-Glo® (Promega, UK) reagent was added. All reagents were made fresh and in accordance with the manufacturer's instructions. Plates were put on an orbital shaker for 10 minutes to mix contents and allow for stabilisation of luminescence signal. Luminescence was then measured using a Tecan Genios plate reader (Tecan Magellan, Austria).
On the technique in general: Cellular ATP, detected with luciferase, serves as a proxy for viable cell number.

Turning to `CCN(CC)c1ccc2nc3c4ccccc4c(=O)cc-3oc2c1` [aqueous Nile Red, Nile red], the “effect on metabolic turnover of Caco-2 cells (MTT)” value in the data set with Caco-2 cells [1] (24 hour incubation, compared to untreated cells, range of concentrations investigated) is “did not affect metabolic turnover”. Moreover, in the data set on Caco-2 cells [1] (120 hour incubation, range of concentrations investigated), the “effect on viability of Caco-2 cells (MTT)” value is “did not affect the viability”. Moreover, the “EC50, MTT assay” value with Caco-2 cells [1] (Caco-2 cells, 120 hour incubation, FIG. 7) is given as “No EC50”. In addition, the “A > B/B > A ratio” value in the data set with Caco-2 cell monolayers was found to be 3.7140. Moreover, in the data set on Caco-2 cells [2] (24 hour incubation, compared to untreated cells), the “effect on ATP presence in Caco-2 cells” value was “ATP presence was not affected”. For the same molecule, in the data set on Caco-2 cells [2] (120 hour incubation, compared to untreated cells), the “effect on viability of Caco-2 cells (ATP assay)” value is “viability was not affected”. Besides, the “EC50, ATP assay” value in the data set with Caco-2 cells [2] (Caco-2 cells, 120 hour incubation, FIG. 9) was “No EC50”.
